Results taken from patent publication US6103751A, “Carotene analogs of porphyrins, chlorins and bacteriochlorins as therapeutic and diagnostic agents” (Health Research, Inc., priority 1998, dated 2000).

Experiments:
[1] = Singlet oxygen production in oxygen saturated toluene, singlet oxygen phosphorescence at 1270 nm; type: physicochemical; conditions: for singlet oxygen production: phosphorescence at 1270 nm
Method: The carboxylic acid functionality was first activated by preparing carbodiimide analog (in situ) before condensing with amino carotene. The structure of the conjugate was confirmed by NMR and mass spectrometry. The singlet oxygen production by HPPH and its carotene conjugate was measured in oxygen saturated toluene solutions by monitoring the singlet oxygen phosphorescence at 1270 nm. […] Thus, a complete photoprotection was achieved.

RIF tumor = assay: In vivo photosensitizing activity (tumor response after laser illumination); set-up: species or system C3H mice
Method: Preliminary In Vivo Activity:
RIF rumors were implanted subcutaneously into the axilla of 5-7 week old female C3H mice. When tumors grew to about 5 mm diameter, mice were injected with photosensitizers at various doses. The mice (6 mice/group) were restrained in aluminum holders and each tumor illuminated with 135 J/cm^2 light from a laser tuned at the longest wavelength absorption maximum of the photosensitizers. The percentage of short-term control was recorded daily.
*Six mice/group (RIF tumor). 1.0 μmol/kg, 705 nm, 135 J/cm^2 (24 h
*Six mice/group (RIF tumor). 135 J/cm^2

[2] = Fluorescence spectroscopy in dichloromethane; type: physicochemical
Method: Fluorescence Spectroscopy:
The fluorescence spectra of HPPH 2, purpurin-imide 4 and their corresponding carotene conjugates 3 and 6 were measured in dichloromethane. In the case of HPPH and its carotenoid analog, excitation at 660 nm gave strong emission at 670 nm. Similarly, purpurin imide and its carotenoid analog on excitation at 705 nm produced emission at 715 nm. Due to their strong fluorescence, and higher uptake in tumors, these compounds show great potential for use as diagnostic agents for malignant and non-malignant tumors.

[3] = tested on: radiation induced fibrosarcoma (RIF) tumor; assay: Tumor uptake by in vivo reflection spectroscopy; set-up: species or system C3H mice; conditions: 5 micro mole/Kg; tumor vs skin fold; 3 h and 24 h post injection
Method: Determination of Tumor Uptake by In Vivo Reflection Spectroscopy:
The tumor uptake of the parent photosensitizer 2 (HPPH), FIG. 1, and purpurin with a fused imide ring 4, FIG. 2, were compared to the corresponding carotene conjugate 3 and 6 by in vivo reflection spectroscopy.
For these experiments, C3H mice with an axillary radiation induced fibrosarcoma (RIF) tumor were injected with the drug in an amount of 5 micro mole/Kg of body weight and the in vivo absorption specta were taken at various time intervals. FIGS. 3 and 4 respectively show the uptake of HPPH 2 and purpurin-imide 4 at 24 h post injection. FIGS. 5 and 6 show the uptake of the HPPH-carotene conjugate at 3 h and 24 h post injection.

[4] = Partition Coefficient (log P); type: physicochemical

CCCCCCOC(C)c1c(C)c2cc3nc(c4c5[nH]c(cc6nc(cc1[nH]2)C(C)=C6CC)c(C)c5C(=O)C4)[C@@H](CCC(=O)O)[C@@H]3C (stereo partly shown) [HPPH (2), Hexyl ether analog of pyropheophorbide-a, reference compound]
fluorescence yield (Φf) [1]: 0.48 | singlet oxygen yield (ΦΔ) ([1]; oxygen saturated toluene): 0.45 | singlet oxygen production ([1]; oxygen saturated toluene): Ample production | % TUMOR RESPONSE day 1-2 (RIF tumor; 0.47 μmol/kg, 665 nm, 24 between inj. & treatment, 135 J/cm^2, day 1-2, Table 2): 100% | % TUMOR RESPONSE day 7 (RIF tumor; 0.47 μmol/kg, 665 nm, 24 between inj. & treatment, 135 J/cm^2, day 7, Table 2): 100% | % TUMOR RESPONSE day 30 (RIF tumor; 0.47 μmol/kg, 665 nm, 24 between inj. & treatment, 135 J/cm^2, day 30, Table 2): 50% | % TUMOR RESPONSE day 90 (RIF tumor; 0.47 μmol/kg, 665 nm, 24 between inj. & treatment, 135 J/cm^2, day 90, Table 2): 50% | % TUMOR RESPONSE day 21 (RIF tumor; 0.47 umol/kg, 504 h): 80% | fluorescence emission wavelength ([2]; excitation at 660 nm): 670 nm

CCCCCCOC(C)c1c(C)c2cc3nc(c4c5[nH]c(cc6nc(cc1[nH]2)C(C)=C6CC)c(C)c5C(=O)C4)[C@@H](CCC(=O)Nc1ccc(/C=C/C(C)=C/C=C/C(C)=C/C=C/C=C(C)/C=C/C=C(C)/C=C/C2=C(C)CCCC2(C)C)cc1)[C@@H]3C (stereo partly shown) [HPPH-carotene (3)]
singlet oxygen production ([1]; oxygen saturated toluene): did not produce singlet oxygen | tumor uptake compared to parent compound [3]: significant uptake of the drug in the tumor vs the skin fold | TUMOR RESPONSE (all days) (RIF tumor; 0.47 μmol/kg, 665 nm, 24 between inj. & treatment, 135 J/cm^2, Table 2): NO RESPONSE | fluorescence emission wavelength ([2]; excitation at 660 nm): 670 nm

CCCCCCOC(C)c1c(C)c2cc3nc(c4c5[nH]c(cc6nc(cc1[nH]2)C(C)=C6CC)c(C)c5C(=O)N(CCC)C4=O)[C@@H](CCC(=O)OC)[C@@H]3C (stereo partly shown) [Hexyl Propyl]
Tumor Response day 7 (RIF tumor; 0.5 μmol, 705 nm, 135 J/cm^2, 24 h post injection, day 7, Table 1): 66% | Tumor Response day 14 (RIF tumor; 0.5 μmol, 705 nm, 135 J/cm^2, 24 h post injection, day 14, Table 1): 33% | Tumor Response day 21 (RIF tumor; 0.5 μmol, 705 nm, 135 J/cm^2, 24 h post injection, day 21, Table 1): 17% | Tumor Response day 30 (RIF tumor; 0.5 μmol, 705 nm, 135 J/cm^2, 24 h post injection, day 30, Table 1): 17% | Tumor Response day 90 (RIF tumor; 0.5 μmol, 705 nm, 135 J/cm^2, 24 h post injection, day 90, Table 1): 17% | Tumor Response days 1-2 (RIF tumor; 0.5 μmol, 705 nm, 135 J/cm^2, 24 h post injection, Table 1): 100% | logP [4]: 8.72

CCCCCCN1C(=O)c2c3nc(cc4[nH]c(cc5nc(cc6[nH]c2c(c6C)C1=O)C(CC)=C5C)c(C(C)OC)c4C)[C@@H](C)[C@@H]3CCC(=O)OC (stereo partly shown) [Methyl Hexyl]
logP [4]: 7.72

CCCN1C(=O)c2c3nc(cc4[nH]c(cc5nc(cc6[nH]c2c(c6C)C1=O)C(CC)=C5C)c(C(C)OC)c4C)[C@@H](C)[C@@H]3CCC(=O)OC (stereo partly shown) [Methyl Propyl]
logP [4]: 6.22

CCCCCCN1C(=O)c2c3nc(cc4[nH]c(cc5nc(cc6[nH]c2c(c6C)C1=O)C(CC)=C5C)c(C(C)OCCC)c4C)[C@@H](C)[C@@H]3CCC(=O)OC (stereo partly shown) [Propyl Hexyl]
logP [4]: 8.72

CCCOC(C)c1c(C)c2cc3nc(c4c5[nH]c(cc6nc(cc1[nH]2)C(C)=C6CC)c(C)c5C(=O)N(CCC)C4=O)[C@@H](CCC(=O)OC)[C@@H]3C (stereo partly shown) [Propyl Propyl]
logP [4]: 7.22

CCCCCCCOC(C)c1c(C)c2cc3nc(c4c5[nH]c(cc6nc(cc1[nH]2)C(C)=C6CC)c(C)c5C(=O)N(CCCCCC)C4=O)[C@@H](CCC(=O)OC)[C@@H]3C (stereo partly shown) [Purpurin-imide (4), heptyl ether analog of N-hexyl purpurin imide]
% TUMOR RESPONSE day 7 (RIF tumor; 1.0 μmol/kg, 705 nm, 24 between inj. & treatment, 135 J/cm^2, day 7, Table 2): 100% | % TUMOR RESPONSE day 21 (RIF tumor; 1.0 μmol/kg, 705 nm, 24 between inj. & treatment, 135 J/cm^2, day 21, Table 2): 100% | % TUMOR RESPONSE day 30 (RIF tumor; 1.0 μmol/kg, 705 nm, 24 between inj. & treatment, 135 J/cm^2, day 30, Table 2): 100% | % TUMOR RESPONSE day 90 (RIF tumor; 1.0 μmol/kg, 705 nm, 24 between inj. & treatment, 135 J/cm^2, day 90, Table 2): 83% | Tumor Response days 1-2 (RIF tumor; 1.0 μmol/kg, 705 nm, 135 J/cm^2, 24 h post injection, Table 1): 100% | mice tumor free on day 90 (RIF tumor; 1.0 μmol/kg, 705 nm, 135 J/cm^2, day 90): 5/6 | in vivo activity among the compounds tested (RIF tumor; dose of 1.0 μmol/kg): most effective | fluorescence emission wavelength ([2]; excitation at 705 nm): 715 nm

CCCCCCCOC(C)c1c(C)c2cc3nc(c4c5[nH]c(cc6nc(cc1[nH]2)C(C)=C6CC)c(C)c5C(=O)N(CCCCCC)C4=O)[C@@H](CCC(=O)Nc1ccc(/C=C/C(C)=C/C=C/C(C)=C/C=C/C=C(C)/C=C/C=C(C)/C=C/C2=C(C)CCCC2(C)C)cc1)[C@@H]3C (stereo partly shown) [Purpurin-imide-carotene (6)]
TUMOR RESPONSE (all days) (RIF tumor; 1.0 μmol/kg, 705 nm, 24 between inj. & treatment, 135 J/cm^2, Table 2): NO RESPONSE | fluorescence emission wavelength ([2]; excitation at 705 nm): 715 nm
